Measured values reported in ChEMBL document CHEMBL3414538, “Synthesis, biological evaluation and molecular modeling studies of the PPARβ/δ antagonist CC618” (Eur J Med Chem, 2015).
The source made the active and inactive calls. The calls are words filed in the database; no cut-off is given here.

Tests used:
[1] = target: T1, Peroxisome proliferator-activated receptor delta (Homo sapiens, UniProt Q03181); test: Antagonist activity against pSG5-Gal4-tagged human PPAR-beta/delta ligand binding domain expressed in COS1 cells assessed as inhibition of GW501516-induced receptor activation incubated for 19 hrs by pGL3-5XUAS-SV40 luciferase reporter gene assay; format: cell-based, COS-1
T1 sequence (Q03181 whole entry): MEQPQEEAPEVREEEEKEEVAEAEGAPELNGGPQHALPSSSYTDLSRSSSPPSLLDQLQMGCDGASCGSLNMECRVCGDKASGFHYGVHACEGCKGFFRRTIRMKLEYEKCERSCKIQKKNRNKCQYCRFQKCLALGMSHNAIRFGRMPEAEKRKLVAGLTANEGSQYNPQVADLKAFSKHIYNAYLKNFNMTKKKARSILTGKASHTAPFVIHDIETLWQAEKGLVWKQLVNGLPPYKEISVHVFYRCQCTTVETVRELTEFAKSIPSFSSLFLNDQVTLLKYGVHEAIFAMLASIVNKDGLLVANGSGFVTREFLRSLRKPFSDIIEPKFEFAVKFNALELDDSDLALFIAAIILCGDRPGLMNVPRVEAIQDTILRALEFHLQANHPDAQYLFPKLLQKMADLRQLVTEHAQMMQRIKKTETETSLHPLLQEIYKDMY

[2] = target: T1, Peroxisome proliferator-activated receptor delta; test: Agonist activity at pSG5-Gal4-tagged human PPAR-beta/delta ligand binding domain expressed in COS1 cells assessed as receptor activation incubated for 19 hrs by pGL3-5XUAS-SV40 luciferase reporter gene assay; format: cell-based; details: cos-1
[3] = target: T2, Peroxisome proliferator-activated receptor gamma (Homo sapiens) (UniProt P37231); test: Antagonist activity against pSG5-Gal4-tagged human PPAR-gamma ligand binding domain expressed in COS1 cells assessed as inhibition of rosiglitazone-induced receptor activation at 20 nM to 20000 nM incubated for 19 hrs by pGL3-5XUAS-SV40 luciferase reporter gene assay; format: cell-based; details: COS-1
T2 sequence (whole entry): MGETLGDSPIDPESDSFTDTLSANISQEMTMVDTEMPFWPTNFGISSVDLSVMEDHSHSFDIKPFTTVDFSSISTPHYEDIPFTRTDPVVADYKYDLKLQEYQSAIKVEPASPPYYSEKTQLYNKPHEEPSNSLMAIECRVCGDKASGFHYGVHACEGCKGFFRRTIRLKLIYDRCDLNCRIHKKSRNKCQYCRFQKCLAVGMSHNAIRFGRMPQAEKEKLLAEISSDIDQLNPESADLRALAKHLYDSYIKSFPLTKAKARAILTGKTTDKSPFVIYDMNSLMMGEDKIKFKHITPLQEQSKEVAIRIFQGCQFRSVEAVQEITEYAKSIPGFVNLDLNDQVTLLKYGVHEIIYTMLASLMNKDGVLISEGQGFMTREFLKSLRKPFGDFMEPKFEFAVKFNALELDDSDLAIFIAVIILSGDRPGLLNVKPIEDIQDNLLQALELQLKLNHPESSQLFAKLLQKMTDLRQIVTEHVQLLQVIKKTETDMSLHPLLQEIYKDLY

[4] = target: T3, Peroxisome proliferator-activated receptor alpha (Homo sapiens) (UniProt Q07869); test: Antagonist activity against pSG5-Gal4-tagged human PPAR-alpha ligand binding domain expressed in COS1 cells assessed as inhibition of bezafibrate-induced receptor activation at 1 nM to 100000 nM incubated for 19 hrs by pGL3-5XUAS-SV40 luciferase reporter gene assay; format: cell-based; details: COS-1
T3 sequence (whole entry): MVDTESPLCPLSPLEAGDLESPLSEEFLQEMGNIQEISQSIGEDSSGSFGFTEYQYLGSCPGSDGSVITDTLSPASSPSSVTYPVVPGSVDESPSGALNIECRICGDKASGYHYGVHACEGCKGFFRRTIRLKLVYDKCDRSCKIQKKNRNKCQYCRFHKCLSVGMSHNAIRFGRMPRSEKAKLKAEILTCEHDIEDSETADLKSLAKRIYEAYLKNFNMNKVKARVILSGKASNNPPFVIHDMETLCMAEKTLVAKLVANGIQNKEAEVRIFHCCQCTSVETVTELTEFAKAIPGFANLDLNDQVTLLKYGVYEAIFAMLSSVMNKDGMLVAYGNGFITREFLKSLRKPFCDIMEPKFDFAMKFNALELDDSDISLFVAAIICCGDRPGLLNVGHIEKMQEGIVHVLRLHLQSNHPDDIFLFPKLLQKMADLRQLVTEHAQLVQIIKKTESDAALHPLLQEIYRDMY

Row | IC50 ([1]; cos-1) | IC50 ([1]; read-out: IC50) [µM] | EC50 [2] | inhibition [3] | inhibition [4] | Structure (SMILES)
1 | Not Active | – | – | – | – | Cc1nc(-c2ccc(C(F)(F)F)cc2)sc1C(=O)NCCS(=O)(=O)c1ccccn1
2 | – | 5 | Not Active | – | – | O=C(NCCS(=O)(=O)c1ccc(C(F)(F)F)cn1)c1ccc(Cl)cc1
3 | – | 10 | Not Active | inactive | inactive | Cc1nc(-c2ccc(C(F)(F)F)cc2)sc1C(=O)NCCS(=O)(=O)c1ccc(C(F)(F)F)cn1
